Measured values taken from ChEMBL document CHEMBL1124763, “Nucleoside conjugates. 11. Synthesis and antitumor activity of 1-beta-D-arabinofuranosylcytosine and cytidine conjugates of thioether lipids” (1990).

How the values were obtained:
Mus musculus [1] = test: Range of survival days for antitumor activity against Ip implanted L1210 / 0 lymphoid leukemia in mice at a dose of 400 mg/kg per day after treatment 5;range is 12-16; format: functional; conditions: route intraperitoneal
Mus musculus [2] = test: Increase of life span was determined against Ip implanted L1210 / ara-C (I) lymphoid leukemia in mice at a dose of 133 mg/kg per day; format: functional; conditions: route intraperitoneal
Mus musculus [3] = test: Increase of life span was determined against Ip implanted L1210 / 0 lymphoid leukemia in mice at a dose of 200 mg/kg per day after treatment 5; format: functional; conditions: L1210/0, ip, route intraperitoneal
Mus musculus [4] = test: Increase of life span was determined against Ip implanted L1210 / 0 lymphoid leukemia in mice at a dose of 400 mg/kg per day after treatment 5; format: functional; conditions: L1210/0, ip, route intraperitoneal
Mus musculus [5] = test: Survival time treated for antitumor activity against Ip implanted L1210 / 0 lymphoid leukemia in mice at a dose of 400 mg/kg per day after treatment -1;21.5/7; conditions: route intraperitoneal
Mus musculus [6] = test: Survival time treated for antitumor activity against Ip implanted L1210 / 0 lymphoid leukemia in mice at a dose of 60 mg/kg per day after treatment 1-5;31/8; conditions: route intraperitoneal
Mus musculus [7] = test: Increase of life span was determined against Ip implanted L1210 / 0 lymphoid leukemia in mice at a dose of 300 mg/kg per day after treatment 1; format: functional; conditions: L1210/0, ip, route intraperitoneal
Mus musculus [8] = test: Survival time treated for antitumor activity against Ip implanted L1210 / 0 lymphoid leukemia in mice at a dose of 200 mg/kg per day after treatment 1,15;27.5/7; conditions: route intraperitoneal
Mus musculus [9] = test: Range of survival days for antitumor activity against Ip implanted L1210 / 0 lymphoid leukemia in mice at a dose of 300 mg/kg per day after treatment 1;range is 18->45; format: functional; conditions: route intraperitoneal
Mus musculus [10] = test: Survival time of treated mice for antitumor activity against Ip implanted L1210 / 0 lymphoid leukemia in mice at a dose of 400 mg/kg per day after treatment 2;19.5/7; conditions: route intraperitoneal
Mus musculus [11] = test: Survival time treated for antitumor activity against Ip implanted L1210 / 0 lymphoid leukemia in mice at a dose of 200 mg/kg per day after treatment 5;15/7; conditions: route intraperitoneal
Mus musculus [12] = test: Range of survival days for antitumor activity against Ip implanted L1210 / 0 lymphoid leukemia in mice at a dose of 400 mg/kg per day after treatment 2;range is 12-26; format: functional; conditions: route intraperitoneal
Mus musculus [13] = test: Range of survival days for antitumor activity against Ip implanted L1210 / ara-C(I) lymphoid leukemia in mice at a dose of 80 mg/kg per day; format: functional; conditions: route intraperitoneal
Mus musculus [14] = test: Increase of life span was determined against Ip implanted L1210 / 0 lymphoid leukemia in mice at a dose of 400 mg/kg per day; format: functional; conditions: L1210/0, ip, route intraperitoneal
Mus musculus [15] = test: Survival time of treated mice for antitumor activity against Ip implanted L1210 / 0 lymphoid leukemia in mice at a dose of 400 mg/kg per day after treatment 5;14.5/7; conditions: route intraperitoneal
Mus musculus [16] = test: Increase of life span was determined against Ip implanted L1210 / 0 lymphoid leukemia in mice at a dose of 300 mg/kg per day after treatment 1,15; format: functional; conditions: L1210/0, ip, route intraperitoneal
Mus musculus [17] = test: Increase of life span was determined against Ip implanted L1210 / ara-C (II) lymphoid leukemia in mice at a dose of 300 mg/kg per day; format: functional; conditions: route intraperitoneal
Mus musculus [18] = test: Range of survival days for antitumor activity against Ip implanted L1210 / 0 lymphoid leukemia in mice at a dose of 300 mg/kg per day after treatment 1,15;range is 21->45; format: functional; conditions: route intraperitoneal
Mus musculus [19] = test: Survival time treated/survival time tested (T/C) for antitumor activity against Ip implanted L1210 / ara-C (II) lymphoid leukemia in mice at a dose of 300 mg/kg per day; format: functional; conditions: route intraperitoneal
Mus musculus [20] = test: Survival time treated for antitumor activity against Ip implanted L1210 / 0 lymphoid leukemia in mice at a dose of 200 mg/kg per day after treatment 1,8,15,22;24.5/7; conditions: route intraperitoneal
Mus musculus [21] = test: Median survival time for antitumor activity against Ip implanted L1210 / ara-C (I) lymphoid leukemia in mice at a dose of 400 mg/kg per day; conditions: route intraperitoneal
Mus musculus [22] = test: Range of survival days for antitumor activity against Ip implanted L1210 / 0 lymphoid leukemia in mice at a dose of 200 mg/kg per day after treatment 1;range is 24->45; format: functional; conditions: route intraperitoneal
Mus musculus [23] = test: Median survival time for antitumor activity against Ip implanted L1210 / ara-C (I) lymphoid leukemia in mice at a dose of 80 mg/kg per day; conditions: route intraperitoneal
Mus musculus [24] = test: Range of survival days for antitumor activity against Ip implanted L1210 / ara-C (I) lymphoid leukemia in mice at a dose of 400 mg/kg per day; format: functional; conditions: route intraperitoneal
Mus musculus [25] = test: Increase of life span was determined against Ip implanted L1210 / 0 lymphoid leukemia in mice at a dose of 60 mg/kg per day after treatment 1-5; format: functional; conditions: L1210/0, ip, route intraperitoneal
Mus musculus [26] = test: Increase of life span was determined against Ip implanted L1210 / 0 lymphoid leukemia in mice at a dose of 200 mg/kg per day after treatment 1,8,15,22; format: functional; conditions: L1210/0, ip, route intraperitoneal
Mus musculus [27] = test: Increase of life span was determined against Ip implanted L1210 / ara-C (I) lymphoid leukemia in mice at a dose of 400 mg/kg per day; format: functional; conditions: route intraperitoneal
Mus musculus [28] = test: Median survival time for antitumor activity against Ip implanted L1210 / 0 lymphoid leukemia in mice at a dose of 300 mg/kg per day after treatment 1,15; conditions: route intraperitoneal
Mus musculus [29] = test: Increase of life span was determined against Ip implanted L1210 / 0 lymphoid leukemia in mice at a dose of 100 mg/kg per day after treatment 1,5,9; format: functional; conditions: L1210/0, ip, route intraperitoneal
Mus musculus [30] = test: Range of survival days for antitumor activity against Ip implanted L1210 / 0 lymphoid leukemia in mice at a dose of 100 mg/kg per day after treatment 1,5,9;range is 18-29; format: functional; conditions: route intraperitoneal
Mus musculus [31] = test: Increase of life span was determined against Ip implanted L1210 / 0 lymphoid leukemia in mice at a dose of 400 mg/kg per day after treatment 2; format: functional; conditions: L1210/0, ip, route intraperitoneal
Mus musculus [32] = test: Increase of life span was determined against Ip implanted L1210 / ara-C (I) lymphoid leukemia in mice at a dose of 80 mg/kg per day; format: functional; conditions: route intraperitoneal
Mus musculus [33] = test: Median survival time for antitumor activity against Ip implanted L1210 / ara-C (I) lymphoid leukemia in mice at a dose of 133 mg/kg per day; conditions: route intraperitoneal
Mus musculus [34] = test: Increase of life span was determined against Ip implanted L1210 / 0 lymphoid leukemia in mice at a dose of 200 mg/kg per day after treatment 1,15; format: functional; conditions: L1210/0, ip, route intraperitoneal
Mus musculus [35] = test: Range of survival days for antitumor activity against Ip implanted L1210 / 0 lymphoid leukemia in mice at a dose of 60 mg/kg per day after treatment 1-5;range is 27->45; format: functional; conditions: route intraperitoneal

In the case of `CCCCCCCCCCCCCCCCCCSCC(COP(=O)(O)OP(=O)(O)OC[C@H]1O[C@@H](n2ccc(N)nc2=O)[C@@H](O)[C@@H]1O)OC(=O)CCCCCCCCCCCCCCC` (mixture of isomers), the “Range of survival days” value (Mus musculus [1]) is reported as 12, the ILS at 133 mg/kg/day (Mus musculus [2]) is reported as > 350% and the ILS at 200 mg/kg/day (Mus musculus [3]) is reported as 114%. It also gave an ILS at 400 mg/kg/day (Mus musculus [4]) of 107%, a survival time (Mus musculus [5]) of 21.5 days and a survival time (Mus musculus [6]) of 31 days. For the same compound, the ILS at 300 mg/kg/day (Mus musculus [7]) was 371%, the survival time (Mus musculus [8]) was 27.5 days and the “Range of survival days” value (Mus musculus [9]) was >18. For the same compound, the survival time (Mus musculus [10]) was 19.5 days, the survival time (Mus musculus [11]) was 15 days and the “Range of survival days” value (Mus musculus [12]) was 12. For the same compound, the Range (Mus musculus [13]) was >25, the ILS at 400 mg/kg/day (Mus musculus [14]) was > 507% and the survival time (Mus musculus [15]) was 14.5 days. For the same compound, the ILS at 300 mg/kg/day (Mus musculus [16]) was 243%, the ILS at 300 mg/kg/day (Mus musculus [17]) was 0% and the “Range of survival days” value (Mus musculus [18]) was >21. The median survival time (Mus musculus [19]) was 9 days, the survival time (Mus musculus [20]) was 24.5 days and the median survival time (Mus musculus [21]) was > 45 days. For the same compound, the “Range of survival days” value (Mus musculus [22]) was >24, the median survival time (Mus musculus [23]) was > 45 days and the Range (Mus musculus [24]) was >45. The ILS at 60 mg/kg/day (Mus musculus [25]) was 288%, the ILS at 200 mg/kg/day (Mus musculus [26]) was 250% and the ILS at 400 mg/kg/day (Mus musculus [27]) was > 350%. The median survival time (Mus musculus [28]) was 24.5 days, the ILS at 100 mg/kg/day (Mus musculus [29]) was 213% and the “Range of survival days” value (Mus musculus [30]) was 18. For the same compound, the ILS at 400 mg/kg/day (Mus musculus [31]) was 179%, the ILS at 80 mg/kg/day (Mus musculus [32]) was > 350% and the median survival time (Mus musculus [33]) was > 45 days. The ILS at 200 mg/kg/day (Mus musculus [34]) was 293% and the “Range of survival days” value (Mus musculus [35]) was >27.
